Consider 13 compounds from patent US8569327B2, “Phenanthroindolizidine derivative and NFκB inhibitor containing same as active ingredient” (Kabushiki Kaisha Yakult Honsha, priority 2008, dated 2013).

What is called IC50 is the concentration needed to halve the response being measured.

One assay relates to NFκB. Briefly: Inhibitory action on the NFκB activity, luciferase assay in SW480/NRE-Luc cells. Type of assay: cell-based, human. Conditions: for IC50: Homo sapiens. The text has this:
(§1) The action of the phenanthroindolizidine alkaloid compound of the present invention on the NFκB activity was studied using a luciferase assay. Human colon cancer SW480 cells were transfected with pNFκB-Luc Plasmid (Stratagene), which is a reporter vector in which a five-time tandem repeat of the NFκB responsive element (NRE) is integrated into the upstream of the luciferase gene, using Lipofectamine 2000 (Invitrogen Corporation) in accordance with the attached operating procedure. Subsequently, the cells were cultured in an RPMI1640 medium containing 10% FBS, 100 U/mL penicillin, 100 μg/mL streptomycin, and 0.5 mg/mL G418 to produce SW480 cells having the luciferase gene, the expression of which is regulated by NRE, stably introduced therein (SW480/NRE-Luc cells). Likewise, SW480 cells were transfected with pGL3-Control Vector (Promega Corporation), which is a reporter vector in which the SV40 promoter is integrated into the upstream of the luciferase gene, to produce SW480 cells having the luciferase gene, the expression of which is regulated by the SV40 promoter, stably introduced therein (SW480/SV40-Luc cells). The SW480/NRE-Luc cells or the SW480/SV40-Luc cells were suspended in an RPMI1640 medium containing 10% FBS, 100 U/mL penicillin, and 100 μg/mL streptomycin (10% FBS/RPMI1640), and then seeded in a 96-well microplate, followed by culturing under conditions of 5% CO2 and at 37° C. (5000 cells/well). After an overnight culture, the compound of the present invention was added, followed by culturing for one hour. Further, 50 ng/mL TNFα (Sigma-Aldrich Corporation) was added, followed by culturing for four hours. Subsequently, a Steady-Glo Luciferase Assay reagent (Promega Corporation) was added, and the luminescent intensity was detected by SpectraMax M5e (Molecular Devices, Inc.) to measure the intracellular luciferase activity. It is to be noted that the action of the compound of the present invention on the NFκB activity or the SV40 promoter activity was shown as IC50 values (the concentration of a test compound needed for 50% inhibition of the induction of the luciferase expression).

In assay [1] the test system is human colon cancer SW480 cells. Put plainly: Inhibitory action on the proliferation of SW480 cells. In kind it is cell-based. Conditions: 48 hours, TetraColor ONE; for IC50: Homo sapiens, SW480. As for the experimental part:
(§2) The action of the phenanthroindolizidine alkaloid compound of the present invention on the proliferation of human colon cancer SW480 cells, HT-29 cells, and human non-small cell lung cancer A549 cells was studied. The SW480 cells were suspended in a 10% FBS/RPMI1640 and then seeded in a 96-well microplate, followed by culturing in 5% CO2 at 37° C. (2000 cells/well). The A549 cells and the HT-29 cells were each suspended in a DMEM medium containing 10% FBS, 100 U/mL penicillin, and 100 μg/mL streptomycin (10% FBS/DMEM) and a DMEM F-12 HAM medium containing 10% FBS, 100 U/mL penicillin, and 100 μg/mL streptomycin (10% FBS/DMEM F12 HAM), and then seeded in 96-well microplates, followed by culturing in 5% CO2 at 37° C. (1000 cells/well). After an overnight culture, the compound of the present invention was added, followed by further culturing for 48 hours (SW480 cells) and 96 hours (A549 cells and HT-29 cells). After culturing, the number of viable cells was counted using TetraColor ONE (Seikagaku Corporation) in accordance with the attached operating procedure. The results were expressed as the concentration of a test compound needed for 50% inhibition of the proliferation of the cells (IC50).

Assay [2] deals with human non-small cell lung cancer A549 cells. Briefly: Inhibitory action on the proliferation of A549 cells. Conditions: 96 hours, TetraColor ONE; for IC50: Homo sapiens, A549. In kind it is cell-based. The method, then:
as §2

The test system of another assay is SV40 promoter. Put plainly: SV40 promoter activity, luciferase assay in SW480/SV40-Luc cells. Type of assay: cell-based, human. Conditions: for IC50: Homo sapiens.
Description: as §1

The test system of assay [3] is human colon cancer HT-29 cells. Put plainly: Inhibitory action on the proliferation of HT-29 cells. In kind it is cell-based. Conditions: 96 hours, TetraColor ONE; for IC50: Homo sapiens, HT-29. As for the experimental part:
as §2

Setting [4] is: SW480/NRE-Luc cells, compound 1 h then 50 ng/mL TNFα 4 h, luciferase.
[5] abbreviates: SW480/SV40-Luc cells, luciferase.
[6] abbreviates: SW480, read-out: NFκB inhibitory activity IC50.
Setting [7] is: SW480, read-out: SV40 promoter inhibitory activity IC50.

Converted amounts (≈) assume the structure as drawn. Read-outs that look alike come from different tables or passages of the source.

For `COc1cc2c3c(c4ccc(N5CCCC5)cc4c2cc1OC)C[C@@H]1CCCN1C3.CS(=O)(=O)O` [Compound 57, (S)-6,7-dimethoxy-3-pyrrolidine-9,10,11,12,12a,13-hexahydro-9a-aza-cyclopenta[b]triphenylene methanesulfonate], the “NFκB inhibitory activity IC50” value in the assay on NFκB (setting [4]) worked out at 0.67 ng/mL. For the same compound, in assay [1], the “SW480 proliferation inhibitory action IC50” value is recorded as 1.0 ng/mL. In addition, the “A549 proliferation inhibitory action IC50” value in assay [2] is 61.1 ng/mL. Further, in the assay with SV40 promoter (setting [5]), the “SV40 promoter inhibitory activity IC50” value is recorded as greater than 10000 ng/mL. Further, the “HT-29 proliferation inhibitory action IC50” value in assay [3] amounted to 74.1 ng/mL.

`COc1cc2c3c(c4ccc(OC(=O)c5cccnc5)cc4c2cc1OC)[C@H](O)[C@@H]1CCCN1C3.Cl` [Compound 11, nicotinic acid(12aS,13S)-13-hydroxy-6,7-dimethoxy-9,10,11,12,12a,13-hexahydro-9a-aza-cyclopenta[b]triphenylene-3-yl ester hydrochloride]: the “NFκB inhibitory activity IC50” value in the assay on NFκB (setting [4]) is reported as 0.48 ng/mL. For the same compound, in assay [1], the “SW480 proliferation inhibitory action IC50” value was found to be 0.50 ng/mL. Besides, the “A549 proliferation inhibitory action IC50” value in assay [2] is on record as 0.028 ng/mL. In addition, the “SV40 promoter inhibitory activity IC50” value in the assay with SV40 promoter (setting [5]) was greater than 10 ng/mL. In addition, in assay [3], the “HT-29 proliferation inhibitory action IC50” value was 0.44 ng/mL.

Consider `COc1cc2c3c(c4ccc(N)cc4c2cc1OC)[C@H](O)[C@@H]1CCCN1C3.Cl` [Compound 25, (12aS,13S)-3-amino-6,7-dimethoxy-9,10,11,12,12a,13-hexahydro-9a-aza-cyclopenta[b]triphenylene-13-ol hydrochloride], for which the IC50 is 1.1 ng/mL with NFκB (setting [6]); 2.3 ng/mL in assay [1]; 0.4 ng/mL in assay [2]; greater than 100 ng/mL in the assay with SV40 promoter (setting [7]); 0.28 ng/mL in assay [3].

Consider `CCc1ccc2c3c(c4cc(OC)c(OC)cc4c2c1)CN1CCC[C@H]1[C@H]3O.Cl` [Compound 3, (12aS,13S)-3-ethyl-6,7-dimethoxy-9,10,11,12,12a,13-hexahydro-9a-aza-cyclopenta[b]triphenylene-13-ol hydrochloride], for which the concentration for half-maximal inhibition (IC50) in the assay on NFκB (setting [6]) is 105 ng/mL; in assay [1] it was 219 ng/mL; in assay [2], 24.5 ng/mL; with SV40 promoter (setting [7]) it was greater than 10000 ng/mL; in assay [3], 50.8 ng/mL.

`COc1cc2c3c(c4ccc(NC(=O)OCC(C)C)cc4c2cc1OC)[C@H](O)[C@@H]1CCCN1C3.Cl` [Compound 18, ((12aS,13S)-13-hydroxy-6,7-dimethoxy-9,10,11,12,12a,13-hexahydro-9a-aza-cyclopenta[b]triphenylene-3-yl)-carbamic acid isobutyl ester hydrochloride]: the half-inhibitory concentration (IC50) with NFκB (setting [6]) is 15.5 ng/mL; in assay [1], 27.6 ng/mL; in assay [2], 16.2 ng/mL; in the assay with SV40 promoter (setting [7]), greater than 1000 ng/mL; in assay [3], 18.1 ng/mL.

Consider `CCC(=O)Oc1ccc2c3c(c4cc(OC)c(OC)cc4c2c1)CN1CCC[C@H]1C3.CS(=O)(=O)O` [Compound 51, propionic acid(S)-6,7-dimethoxy-9,10,11,12,12a,13-hexahydro-9a-aza-cyclopenta[b]triphenylene-3-yl ester methanesulfonate], for which the “NFκB inhibitory activity IC50” value in the assay on NFκB (setting [4]) is listed as 0.80 ng/mL. For the same compound, in assay [1], the “SW480 proliferation inhibitory action IC50” value is reported as 1.1 ng/mL. In addition, in assay [2], the “A549 proliferation inhibitory action IC50” value is on record as 0.78 ng/mL. Further, in the assay with SV40 promoter (setting [5]), the “SV40 promoter inhibitory activity IC50” value is listed as greater than 100 ng/mL. For the same compound, the “HT-29 proliferation inhibitory action IC50” value in assay [3] stood at 1.6 ng/mL.

With `CCC(=O)Oc1ccc2c3c(c4cc(OC)c(OC)cc4c2c1)CN1CCC[C@H]1[C@H]3O.Cl` [Compound 15, propionic acid(12aS,13S)-13-hydroxy-6,7-dimethoxy-9,10,11,12,12a,13-hexahydro-9a-aza-cyclopenta[b]triphenylene-3-yl ester hydrochloride], the “NFκB inhibitory activity IC50” value with NFκB (setting [4]) is recorded as 0.20 ng/mL. Also, the “SW480 proliferation inhibitory action IC50” value in assay [1] was determined as 0.39 ng/mL. Besides, in assay [2], the “A549 proliferation inhibitory action IC50” value amounted to 0.35 ng/mL. In the assay with SV40 promoter (setting [5]), the “SV40 promoter inhibitory activity IC50” value was greater than 100 ng/mL. In addition, the “HT-29 proliferation inhibitory action IC50” value in assay [3] was 0.62 ng/mL.

Turning to `COc1cc2c3c(c4ccc(N)cc4c2cc1OC)C[C@@H]1CCCN1C3.CS(=O)(=O)O` [Compound 54, (S)-3-amino-6,7-dimethoxy-9,10,11,12,12a,13-hexahydro-9a-aza-cyclopenta[b]triphenylene methanesulfonate], the half-inhibitory concentration (IC50) in the assay with NFκB (setting [6]) is 2 ng/mL; in assay [1], 3.9 ng/mL; in assay [2], 2.8 ng/mL; in the assay with SV40 promoter (setting [7]), greater than 10 ng/mL; in assay [3], 4.15 ng/mL.

In the case of `COc1cc2c3c(c4ccc(OC(=O)CCCCCCC(=O)Oc5ccc6c7c(c8cc(OC)c(OC)cc8c6c5)CN5CCC[C@H]5[C@H]7O)cc4c2cc1OC)[C@H](O)[C@@H]1CCCN1C3.Cl` [Compound 24, octanedionic acid(9S,12S)-13-hydroxy-6,7-dimethoxy-9,10,11,12,12a,13-hexahydro-9a-aza-cyclopenta[b]triphenylene-3-yl ester(12aS,13S)-13-hydroxy-6,7-dimethoxy-9,10,11,12,12a,13-hexahydro-9a-aza-cyclopenta[b]triphenylene-3-yl ester hydrochloride], the “NFκB inhibitory activity IC50” value with NFκB (setting [4]) stood at 0.90 ng/mL. In addition, in assay [1], the “SW480 proliferation inhibitory action IC50” value stood at 0.77 ng/mL. Moreover, the “A549 proliferation inhibitory action IC50” value in assay [2] came out at 0.18 ng/mL. Moreover, the “SV40 promoter inhibitory activity IC50” value in the assay with SV40 promoter (setting [5]) is greater than 100 ng/mL. Moreover, in assay [3], the “HT-29 proliferation inhibitory action IC50” value is 0.24 ng/mL.

For the compound `COc1cc2c3c(c4ccccc4c2cc1OC)[C@H](O)[C@@H]1CCCN1C3.Cl` [Compound 1, (12aS,13S)-6,7-dimethoxy-9,10,11,12,12a,13-hexahydro-9a-aza-cyclopenta[b]triphenylene-13-ol hydrochloride], the 50% inhibitory concentration (IC50) in the assay with NFκB (setting [6]) was 2.7 ng/mL; in assay [1], 5.1 ng/mL; in assay [2] it was 2.6 ng/mL; in the assay with SV40 promoter (setting [7]), greater than 1000 ng/mL; in assay [3] it was 3.7 ng/mL.

As for `COc1cc2c3c(c4ccc(OC(=O)C(C)(C)C)cc4c2cc1OC)[C@H](O)[C@@H]1CCCN1C3.Cl` [Compound 10, 2,2-dimethyl-propionic acid(12aS,13S)-13-hydroxy-6,7-dimethoxy-9,10,11,12,12a,13-hexahydro-9a-aza-cyclopenta[b]triphenylene-3-yl ester hydrochloride], the “NFκB inhibitory activity IC50” value in the assay with NFκB (setting [4]) was found to be 0.49 ng/mL. Further, the “SW480 proliferation inhibitory action IC50” value in assay [1] turned out to be 0.73 ng/mL. In addition, the “A549 proliferation inhibitory action IC50” value in assay [2] worked out at 0.14 ng/mL. For the same compound, the “SV40 promoter inhibitory activity IC50” value in the assay on SV40 promoter (setting [5]) is on record as greater than 100 ng/mL. The “HT-29 proliferation inhibitory action IC50” value in assay [3] is listed as 0.47 ng/mL.

In the case of `COc1cc2c3c(c4ccccc4c2cc1OC)C[C@@H]1CCCN1C3.CS(=O)(=O)O` [Compound 53, (S)-6,7-dimethoxy-9,10,11,12,12a,13-hexahydro-9a-aza-cyclopenta[b]triphenylene methanesulfonate], the IC50 in the assay on NFκB (setting [6]) is 19.1 ng/mL; in assay [1], 32.9 ng/mL; in assay [2], 28.9 ng/mL; with SV40 promoter (setting [7]), greater than 10000 ng/mL; in assay [3], 58.5 ng/mL.

Turning to `S=C(S)N1CCCC1` [PDTC, pyrrolidine dithiocarbamate, reference compound], the IC50 with NFκB (SW480/NRE-Luc cells, compound 1 h then 50 ng/mL TNFα 4 h, luciferase, read-out: NFκB inhibitory activity IC50) was 2400 ng/mL (≈ 16.3 µM); in the assay on SV40 promoter (SW480/SV40-Luc cells, luciferase, read-out: SV40 promoter inhibitory activity IC50), greater than 10000 ng/mL.
